# Counter-ions that a name gives are not always drawn. Like-named read-outs stand apart in the source and are kept apart here.
# Legend:
# [1] = target: T1, hRIPK1 (aa 1-375) fusion protein (Homo sapiens, UniProt Q13546); assay: ADP-Glo kinase assay, RIPK1 autophosphorylation; assay type: biochemical
# T1 construct: hRIPK1 (aa 1-375) fusion protein
# T1 sequence (Q13546 1-375): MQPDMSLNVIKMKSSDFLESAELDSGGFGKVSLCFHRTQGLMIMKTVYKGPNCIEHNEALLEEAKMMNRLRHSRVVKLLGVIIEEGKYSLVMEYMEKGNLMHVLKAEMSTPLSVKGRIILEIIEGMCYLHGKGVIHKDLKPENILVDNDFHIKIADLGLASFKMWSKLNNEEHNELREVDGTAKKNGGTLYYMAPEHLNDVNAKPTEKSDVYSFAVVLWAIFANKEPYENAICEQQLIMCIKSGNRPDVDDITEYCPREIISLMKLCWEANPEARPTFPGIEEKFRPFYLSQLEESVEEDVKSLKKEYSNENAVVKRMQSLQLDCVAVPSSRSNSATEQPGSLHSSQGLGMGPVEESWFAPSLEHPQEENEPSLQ
# Experimental: Evaluation of Receptor-Interacting Protein Kinase 1 Inhibition.
# The catalytic activity of RIPK1 was measured by monitoring the conversion of Adenosine triphosphate (ATP) to Adenosine diphosphate (ADP) due to autophosphorylation using an ADP-Glo kinase kit (Promega, catalog no. V9104).
# After another 240 minutes incubation at room temperature, 5 μl Promega ADP-Glo reagent I were added to quench the reaction and deplete unconsumed ATP. After an incubation period of 30 minutes, 10 μl Promega ADP-Glo detection reagent II were added resulting in conversion of ADP to ATP, which generates a light-reaction between luciferase and luciferin. Luminescence was quantified after 30 minutes with a Pherastar FS (BMG LABTECH, Ortenberg).
# The adjustment was obtained by nonlinear regression using the Levenberg Marquardt algorithm.
# U937 cells = assay: Cellular assay in U937 cells on cell death (necroptosis), TNFα/zVAD.fmk; assay type: cell-based
# Source text: Cellular Assay in U937 Cells to Measure the Activity of RIPK1-Inhibitors on Cell Death (Necroptosis).
# Cell death was quantified in 96 well plates by determination of the amount of live cell using a CellTiter 96 AQueous reagent (Promega), a calorimetric method to measure the amount of live cells by reducing tetrazolium compound [3-(4,5-dimethylthiazol-2-yl)-5-(3-carboxymethoxyphenyl)-2-(4-sulfophenyl)-2H-tetrazolium, inner salt; MTS] into formazan. Absorbance of formazan was read at 490 nm. The inhibitory activity of the test compound was quantified in a concentration response curve (CRC) experiment. Compounds were obtained as 10 mM stock solutions and were diluted 1 to 10 volumes with DMSO to yield a 1 mM solution. From this solution 2 μl were diluted with 998 μl growth medium. 100 μl of 2 μM compound solution was further diluted sequentially with a dilution factor of 2.5 by adding 150 μl growth medium. A total of 10 concentrations were tested ranging from 10 μM to 0.26 nM or from 1 μM to 0.07 nM.
# U937 cells were cultured in RPMI1640 Glutamax and 10% heat inactivated FBS. 50 μl cell suspension containing 1×10^6 cells/ml supplemented with 50 μM zVAD.fmk (Benzyloxycarbonyl-Val-Ala-Asp (OMe) fluoromethylketone) and 100 ng/ml recombinant human TNFα were dispensed in each well of a 96-well plate. 50 μl of compound dilutions (see above) were added and the cell suspension incubated overnight (18 to 24 hours) at 37° C., 5% CO2 in a humidified atmosphere (95% rH). High (no compound) and low control (no TNFα, zVAD.fmk) were tested with 7 replicates; all compound concentrations were tested in duplicates on each experimental plate.
# CellTiter 96 Aqueous reagent was mixed (100 μl PMS (phenazine methosulfate) solution/2 ml MTS (3-(4,5-[…])-5-(3-carboxymethoxyphenyl)-2-(4-sulfophenyl)-2H-tetrazolium, inner salt) solution) and 20 μl were added per well. After 4 hours incubation at 37° C. (5% CO2 95% rH) optical density was measured at 490 nm on a microplate reader (Tecan Infinite M1000).
# The % inhibition is expressed as percentage of the maximal inhibition value obtained in the absence of TNFα/zVAD.fmc.
# [2] = Homo sapiens, U-937, Table 2, read-out: U937 IC50
# [3] = Homo sapiens, U-937, Key compound table 4, read-out: U937 IC50 (uM) Mean
Structure (SMILES),IC50 ([1]; Table 1),IC50 ([1]; Key compound table 4),"IC50 (U937 cells; Table 2, listed as 10, read-out: U937 IC50)",IC50 (U937 cells; [2]),IC50 (U937 cells; [3])
N#Cc1cncc([C@@H]2CCON2C(=O)C2CCN(c3nccc(C#N)n3)CC2)c1 [Ex. 011],24.5 nM,–,–,0.0126 µM,–
CC1(C(=O)N2OCC[C@H]2c2cncc(C#N)c2)CCN(c2nccc(C(N)=O)n2)CC1 [Ex. 019],23.5 nM,–,–,0.0573 µM,–
CC1(C(=O)N2OCC[C@H]2c2cncc(C#N)c2)CCN(c2nccc(C(=O)O)n2)CC1 [Ex. 021],70.4 nM,–,–,> 10 µM,–
N#Cc1cncc([C@@H]2CCON2C(=O)C2CCN(c3cc(C(N)=O)ccn3)CC2)c1 [Ex. 026],62.7 nM,–,–,1.9 µM,–
"N#Cc1cncc([C@@H]2CCON2C(=O)C2CCN(c3ncc(F)c(OCC(=O)O)n3)CC2)c1 [Ex. 033, 2-[2-[4-[(3S)-3-(5-Cyano-3-pyridyl)isoxazolidine-2-carbonyl]-1-piperidyl]-5-fluoro-pyrimidin-4-yl]oxyacetic acid TFA salt]",511 nM,–,–,> 10 µM,–
N#Cc1cncc([C@@H]2CCON2C(=O)C2CCN(c3ncc(F)c(OCC(N)=O)n3)CC2)c1 [Ex. 035],66.1 nM,–,–,0.183 µM,–
N#Cc1cncc([C@@H]2CCON2C(=O)C2CCN(c3ncc(F)c(N)n3)CC2)c1 [Ex. 039],50.1 nM,–,–,0.18 µM,–
Cc1cncc([C@@H]2CCON2C(=O)C2CCN(c3nccc(C(N)=O)n3)CC2)n1 [Ex. 044],–,9 nM,–,–,0.009 µM
NC(=O)c1ccnc(N2CCC(C(=O)N3OCC[C@H]3c3cncc(N4CCC4=O)c3)CC2)n1 [Ex. 055],101 nM,–,–,0.844 µM,–
"N#Cc1ccnc(N2CCC(C(=O)N3OCC[C@H]3c3cncc(N4CCC4=O)c3)CC2)n1 [Ex. 056, 2-[4-[(3S)-3-[5-(2-Oxoazetidin-1-yl)-3-pyridyl]isoxazolidine-2-carbonyl]-1-piperidyl]pyrimidine-4-carbonitrile]",42.5 nM,–,–,2.2 µM,–
"CCOC(=O)c1ncnc(N2CCC(C(=O)N3OCC[C@H]3c3cncc(C#N)c3)CC2)c1F [Ex. 057, Ethyl 6-[4-[(3S)-3-(5-cyano-3-pyridyl)isoxazolidine-2-carbonyl]-1-piperidyl]-5-fluoro-pyrimidine-4-carboxylate]",30.9 nM,–,–,0.11 µM,–
N#Cc1cncc([C@@H]2CCON2C(=O)C2(F)CCN(c3ncc(F)c(C(N)=O)n3)CC2)c1 [Ex. 059],20.8 nM,–,–,0.0507 µM,–
CC1(C(=O)N2OCC[C@H]2c2cncnc2)CCN(c2nccc(C(N)=O)n2)CC1 [Ex. 061],39.1 nM,–,–,0.256 µM,–
COc1nc(N2CCC(C(=O)N3OCC[C@H]3c3cncnc3)CC2)ncc1F [Ex. 064],20.4 nM,–,–,0.0642 µM,–
N#Cc1ccnc(N2CCC(C(=O)N3OCC[C@H]3c3cncnc3)CC2)c1 [Ex. 065],65.6 nM,–,–,0.612 µM,–
N#Cc1cncc([C@@H]2CCON2C(=O)C2CCN(c3cnc(C#N)cn3)CC2)c1 [Ex. 066],35.1 nM,–,–,0.205 µM,–
N#Cc1cncc([C@@H]2CCON2C(=O)C2CCN(c3cncc(C#N)n3)CC2)c1 [Ex. 067],84.8 nM,–,–,0.553 µM,–
N#Cc1cncc([C@@H]2CCON2C(=O)C2CCN(c3ncc(F)c(C(N)=O)n3)CC2)c1 [Ex. 068],–,11 nM,–,–,0.003 µM
N#Cc1cncc([C@@H]2CCON2C(=O)C2CCN(c3cncc(C(N)=O)n3)CC2)c1 [Ex. 71],25.6 nM,–,–,0.964 µM,–
N#Cc1cncc([C@@H]2CCON2C(=O)C2CCN(c3cnc(C(N)=O)cn3)CC2)c1 [Ex. 072],25 nM,–,–,0.554 µM,–
NC(=O)c1nc(N2CCC(C(=O)N3OCC[C@H]3c3cnccn3)CC2)ncc1F [Ex. 075],–,8 nM,–,–,0.003 µM
CCOC(=O)N1CC(NC(=O)c2ccnc(N3CCC(C(=O)N4OCC[C@H]4c4cncc(C#N)c4)CC3)n2)C1 [Ex. 088],33.6 nM,–,–,0.158 µM,–
Cc1cncc([C@@H]2CCON2C(=O)C2CCN(c3ncc(C)c(C(N)=O)n3)CC2)n1 [Ex. 097],24 nM,–,–,0.0415 µM,–
Cc1cnc(N2CCC(C(=O)N3OCC[C@H]3c3cnccn3)CC2)nc1C(N)=O [Ex. 99],22.3 nM,–,–,0.054 µM,–
"CSc1nc(N2CCC(C(=O)N3OCC[C@H]3c3cncc(C#N)c3)CC2)ncc1F [Ex. 103, 5-[(3S)-2-[1-(5-Fluoro-4-methylsulfanyl-pyrimidin-2-yl)piperidine-4-carbonyl]isoxazolidin-3-yl]pyridine-3-carbonitrile]",17.5 nM,–,–,0.00144 µM,–
N#Cc1ccc([C@@H]2CCON2C(=O)C2CCN(c3ncc(F)c(C(N)=O)n3)CC2)nc1 [Ex. 106],42.9 nM,–,–,0.548 µM,–
N#Cc1ccc([C@@H]2CCON2C(=O)C2CCN(c3cc(C(N)=O)ncn3)CC2)nc1 [Ex. 107],364 nM,–,–,7.52 µM,–

# The next lines start with results.
IC50 ([1]; Table 1),IC50 ([1]; Key compound table 4),Structure (SMILES),"IC50 (U937 cells; Table 2, listed as 10, read-out: U937 IC50)",IC50 (U937 cells; [2]),IC50 (U937 cells; [3])
12 nM,–,"COC(=O)c1ccnc(N2CCC(C(=O)N3OCC[C@H]3c3cncc(C#N)c3)CC2)n1 [Ex. 010, Methyl 2-[4-[(3S)-3-(5-cyano-3-pyridyl)isoxazolidine-2-carbonyl]-1-piperidyl]pyrimidine-4-carboxylate]",0.21 µM,–,–
10.7 nM,–,"COC(=O)c1ccnc(N2CCC(C)(C(=O)N3OCC[C@H]3c3cncc(C#N)c3)CC2)n1 [Ex. 020, Methyl 2-[4-[(3S)-3-(5-cyano-3-pyridyl)isoxazolidine-2-carbonyl]-4-methyl-1-piperidyl]pyrimidine-4-carboxylate]",–,0.118 µM,–
17.3 nM,–,N#CCOc1nc(N2CCC(C(=O)N3OCC[C@H]3c3cncc(C#N)c3)CC2)ncc1F [Ex. 028],–,0.00105 µM,–
17.2 nM,–,Cc1cncc([C@@H]2CCON2C(=O)C2CCN(c3nccc(C#N)n3)CC2)n1 [Ex. 045],–,0.0664 µM,–
11.7 nM,–,Cc1cnc(N2CCC(C(=O)N3OCC[C@H]3c3cncc(C#N)c3)CC2)nc1C(N)=O [Ex. 053],–,0.0561 µM,–
11 nM,–,N#Cc1cncc([C@@H]2CCON2C(=O)C2CCN(c3ncnc(C(N)=O)c3F)CC2)c1 [Ex. 073],–,0.103 µM,–
10.3 nM,–,NC(=O)c1nc(N2CCC(C(=O)N3OCC[C@H]3c3cncc(F)c3)CC2)ncc1F [Ex. 080],–,0.00337 µM,–
15.7 nM,–,Cc1ncc([C@@H]2CCON2C(=O)C2CCN(c3nccc(C(N)=O)n3)CC2)cc1C#N [Ex. 081],–,0.0297 µM,–
16.1 nM,–,NC(=O)c1ccnc(N2CCC(C(=O)N3OCC[C@H]3c3ccc(Cl)cn3)CC2)n1 [Ex. 083],–,0.0495 µM,–
15.3 nM,–,Cc1ncc([C@@H]2CCON2C(=O)C2CCN(c3ncc(F)c(C(N)=O)n3)CC2)cc1C#N [Ex. 085],–,0.0206 µM,–
9.55 nM,–,Cc1cnc([C@@H]2CCON2C(=O)C2CCN(c3nccc(C(N)=O)n3)CC2)cn1 [Ex. 087],–,0.0505 µM,–
4.16 nM,–,N#Cc1cncc([C@@H]2CCON2C(=O)[C@H]2CCN(c3nccc(C(N)=O)n3)C[C@@H]2F)c1 [Ex. 093],–,0.0193 µM,–
13.7 nM,–,Cc1cnc(N2CCC(C(=O)N3OCC[C@H]3c3cncc(F)c3)CC2)nc1C(N)=O [Ex. 098],–,0.0325 µM,–
13.4 nM,–,C[S+]([O-])c1nc(N2CCC(C(=O)N3OCC[C@H]3c3cncc(C#N)c3)CC2)ncc1F (stereo partly drawn) [Ex. 104],–,0.736 µM,–
11.2 nM,–,CS(=O)(=O)c1nc(N2CCC(C(=O)N3OCC[C@H]3c3cncc(C#N)c3)CC2)ncc1F [Ex. 105],–,7.94 µM,–
